Data as given in US8883798B2, “Pyrimidine compounds inhibiting the formation of nitric oxide and prostaglandin E2, method of production thereof and use thereof” (Ustav Organicke Chemie a Biochemie Akademie Ved CR, V.V.I., priority 2011, dated 2014).

Assays:
[1] = test system: peritoneal cells of mice; test: Cell viability of mouse peritoneal cells (WST-1 kit); assay type: cell-based; details: substance 50 μmol·l^−1, 24 h; for Cell viability in % of the controls: Table 3A; for Cell viabilities in % of the controls: Table 3B
Procedure: Cell viability was determined in the standard way using a WST-1 kit (Roche). The values of the viability of the control cells were for the purposes of comparison between experiments considered as 100%. The influence of the substances on the longevity of the cells was evaluated in percentage with respect to the control values.
(§1) Experiments were performed on mice peritoneal cells C57BL/6 (Charles River, Germany—AnLabu).
(§2) NO production was induced using IFN-g (5000 pg/mL) plus LPS (100 pg/mL); evaluated (Griess reagent) after 24 h of the cell cultivation (2×10^6/mL). PGE2 was induced using LPS (10 ng/mL); evaluated (ELISA) following 6 h cultivation of cells (3×10^6/mL). Cell longevity was evaluated using WST-1 (tetrazolium salt), following 24 h cultivation of cells (1×10^6/mL). The values mentioned in the table represent the effects of the substances tested in a concentration of 50 μmol·l^−1.

[2] = test system: production of nitric oxide (NO); test: Production of nitric oxide (NO) in cultures of mouse peritoneal cells stimulated with IFN-γ plus LPS (Griess reagent); assay type: cell-based, mice; details: substance 50 μmol·l^−1, IFN-g plus LPS, 24 h
Procedure: (§3) Under in vitro conditions, the effect of the pyrimidine compounds according to this invention was tested in terms of the production of nitric oxide (NO) and in terms of the production of prostaglandin E2 (PGE2) in cultures of the peritoneal cells of mice.
NO is a product of the metabolism of L-arginine, quickly changes to […], which are then measured using the Griess reagent system. Under normal conditions, the production of NO is practically zero. It only occurs after some stimulation. In these experiments, interferon-gamma (IFN-γ) and bacterial lipopolysacharide (LPS) were used as stimulators. The values of NO induced in this way fluctuated in the individual experiments in a range from 52 to 89 μmol·l^−1; for the purposes of comparison between the experiments they were considered as 100%. The production of NO after the application of the substances was expressed in percentage with respect to the control values. (The lower the value, the higher the inhibition effect of the substances on NO production.) IC50 are the concentrations of the substances reducing the production of NO by 50% with respect to the controls.
as §1, §2

[3] = test system: production of prostaglandin E2 (PGE2); test: Production of prostaglandin E2 (PGE2) in cultures of mouse peritoneal cells stimulated with LPS (ELISA kit); assay type: cell-based, mice; details: for Production of prostaglandins in % of the controls: Table 3A, substance 50 μmol·l^−1, 6 h; for Production of prostaglandins IC50 (μmol · 1^−1) average value and range of values: Table 3B, 6 h
Procedure: as §3
The influence on the production of prostaglandin E2 (PGE2) in vitro caused by the activity of the pyrimidine compounds according to the submitted invention was determined in cultures of the peritoneal cells of mice using a commercial kit (R&DSystems). The concentrations of PGE2 after lipopolysacharide (LPS) stimulation reached in the individual experiments values in a range of 22 to 91 ng·ml^−1 and for the purposes of comparison between the experiments were considered as 100%. The influence of the substances on the production of PGE2 was evaluated in percentage with respect to the control values.
as §1, §2

Structure (SMILES)	Cell viability in % of the controls [1]	Production of nitric oxide in % of the controls ([2]; Table 3A)	Production of prostaglandins in % of the controls [3]	Cell viabilities in % of the controls [1]	Production of nitric oxide in % of the controls ([2]; Table 3B)	Production of prostaglandins IC50 (μmol · 1^−1) average value and range of values [3]
CCCc1c(Cl)nc(N=CN(C)C)nc1Cl [Substance 15]	109.35 ± 8.88 % of the controls	8.42 ± 4.75 % of the controls	14.76 ± 0.52 % of the controls			
CCCCc1c(-c2ccc(F)cc2)nc(N)nc1-c1cccs1 [Substance 87]				125.94 ± 4.49; n = 8 % of the controls	48.59 ± 10.92; n = 3 % of the controls	23.05 ± 11.33; n = 4 μmol · 1^−1
CCCCc1c(-c2cccs2)nc(N)nc1-c1cccs1 [Substance 92]				102.36 ± 6.45; n = 8 % of the controls	46.09 ± 7.92; n = 6 % of the controls	29.52 ± 11.77; n = 4 μmol · 1^−1
CCCCc1c(-c2ccccc2)nc(N)nc1-c1ccc(F)cc1 [Substance 69]				121.04 ± 9.53; n = 4 % of the controls	71.24 ± 4.28; n = 4 % of the controls	75.40 ± 21.62; n = 4 μmol · 1^−1
O=CNc1nc(Cl)c(-c2ccccc2)c(Cl)n1 [Substance 56]	48.49 ± 4.44 % of the controls	0.80 ± 0.37 % of the controls	46.40 ± 0.28 % of the controls			
CCCCc1c(-c2cccnc2)nc(N)nc1-c1ccco1 [Substance 97]				45.54 ± 4.96; n = 8 % of the controls	37.05 ± 6.68; n = 6 % of the controls	48.18 ± 19.94; n = 4 μmol · 1^−1
CCCCc1c(Cl)nc(N)nc1-c1ccccc1 [Substance 68]				94.17 ± 8.43; n = 8 % of the controls	27.78 ± 2.11; n = 4 % of the controls	18.12 ± 0.99; n = 6 μmol · 1^−1
CCCCc1c(-c2cccnc2)nc(N)nc1-c1cc2ccccc2o1 [Substance 119]				76.10 ± 6.23; n = 8 % of the controls	70.13 ± 10.10; n = 6 % of the controls	71.89 ± 0.36; n = 2 μmol · 1^−1
CCCCc1c(-c2ccsc2)nc(N)nc1-c1cccc2ccccc12 [Substance 140]				94.34 ± 2.62; n = 4 % of the controls	30.16 ± 2.96; n = 4 % of the controls	40.66 ± 6.87; n = 2 μmol · 1^−1
CCCCc1c(-c2cccs2)nc(N)nc1-c1cc2ccccc2s1 [Substance 130]				130.68 ± 8.17; n = 12 % of the controls	43.43 ± 7.18; n = 10 % of the controls	56.31 ± 19.61; n = 8 μmol · 1^−1
CCCCc1c(-c2ccccc2)nc(N)nc1-c1cccs1 [Substance 86]				101.59 ± 9.19; n = 8 % of the controls	47.57 ± 8.58; n = 6 % of the controls	27.57 ± 8.77; n = 4 μmol · 1^−1
CCCCc1c(-c2ccccc2)nc(N)nc1-c1ccccn1 [Substance 76]				97.97 ± 5.33; n = 8 % of the controls	45.05 ± 3.55; n = 4 % of the controls	42.94 ± 11.04; n = 6 μmol · 1^−1
CCCCc1c(-c2ccsc2)nc(N)nc1-c1cc2ccccc2o1 [Substance 124]				94.41 ± 9.01; n = 8 % of the controls	33.45 ± 13.04; n = 6 % of the controls	62.48 ± 5.45; n = 2 μmol · 1^−1
CCCCc1c(Cl)nc(NC(C)=O)nc1Cl [Substance 147]				113.28 ± 8.99; n = 8 % of the controls	15.32 ± 2.33; n = 6 % of the controls	80.60 ± 4.63; n = 2 μmol · 1^−1
C=CCc1c(Cl)nc(NC=O)nc1Cl [Substance 57]	95.37 ± 15.40 % of the controls	1.21 ± 0.28 % of the controls	16.42 ± 0.64 % of the controls			
CCc1c(Cl)nc(NC=O)nc1Cl [Substance 49]	111.37 ± 10.44 % of the controls	5.76 ± 2.48 % of the controls	20.58 ± 2.13 % of the controls			
CCCCc1c(-c2ccc(F)cc2)nc(N)nc1-c1ccc(F)cc1 [Substance 70]				108.03 ± 9.80; n = 4 % of the controls	87.03 ± 3.75; n = 4 % of the controls	51.70 ± 13.80; n = 2 μmol · 1^−1
CCCCc1c(-c2ccsc2)nc(N)nc1-c1ccsc1 [Substance 114]				118.67 ± 2.26; n = 8 % of the controls	70.51 ± 5.78; n = 4 % of the controls	37.00 ± 16.33; n = 4 μmol · 1^−1
CCCCc1c(Cl)nc(NC2CC2)nc1Cl [Substance 143]				104.31 ± 8.28; n = 8 % of the controls	78.33 ± 13.82; n = 6 % of the controls	85.94 ± 12.69; n = 4 μmol · 1^−1
CCCCc1c(-c2ccc(OC)cc2)nc(N)nc1-c1cccc2ccccc12 [Substance 134]				93.40 ± 5.59; n = 12 % of the controls	33.09 ± 7.25; n = 8 % of the controls	27.85 ± 10.82; n = 8 μmol · 1^−1
CCCCc1c(-c2ccc(F)cc2)nc(N)nc1-c1ccc(OC)cc1 [Substance 73]				130.12 ± 10.97; n = 12 % of the controls	65.09 ± 4.11; n = 6 % of the controls	3.92 ± 1.85; n = 4 μmol · 1^−1
CCCCc1c(Cl)nc(N)nc1-c1cccc2ccccc12 [Substance 142]				114.07 ± 8.00; n = 8 % of the controls	43.99 ± 6.06; n = 6 % of the controls	9.14 ± 2.71; n = 4 μmol · 1^−1
CCCCc1c(Cl)nc(N)nc1-c1ccoc1 [Substance 106]				100.38 ± 5.55; n = 8 % of the controls	54.83 ± 2.82; n = 4 % of the controls	22.10 ± 3.44; n = 4 μmol · 1^−1
CCCCc1c(-c2ccccn2)nc(N)nc1-c1cc2ccccc2s1 [Substance 127]				130.66 ± 2.87; n = 8 % of the controls	40.88 ± 6.83; n = 4 % of the controls	38.26 ± 14.52; n = 8 μmol · 1^−1
CCCCc1c(-c2ccco2)nc(N)nc1-c1cccs1 [Substance 99]				55.22 ± 5.10; n = 4 % of the controls	31.27 ± 2.12; n = 4 % of the controls	13.25 ± 6.33; n = 4 μmol · 1^−1
CCCCc1c(-c2ccc(OC)cc2)nc(N)nc1-c1cccnc1 [Substance 80]				103.13 ± 4.24; n = 8 % of the controls	35.18 ± 4.39; n = 4 % of the controls	41.84 ± 7.54; n = 2 μmol · 1^−1
CCCCc1c(-c2ccccc2)nc(N)nc1-c1cc2ccccc2o1 [Substance 116]				95.24 ± 4.78; n = 8 % of the controls	72.69 ± 10.36; n = 4 % of the controls	49.17 ± 9.72; n = 4 μmol · 1^−1
CCc1c(Cl)nc(N=CN(C)C)nc1Cl [Substance 14]	162.93 ± 14.68 % of the controls	23.24 ± 6.78 % of the controls	30.40 ± 0.80 % of the controls			
